Legend:
[1] = biological target: GDP-bound HRAS wild-type protein (Homo sapiens, UniProt P01112); experiment: Binding to HRAS by surface plasmon resonance (SPR), Single Cycle Kinetics; settings: SPR; KD ratio class
[2] = test system: human lung cancer strain NCI-H441; experiment: cells; settings: NCI-H441, 96 h, read-out: NCI-H441 IC50 (nM)
[3] = biological target: GDP-bound NRAS wild-type protein (Homo sapiens, UniProt P01111); experiment: Binding to NRAS by surface plasmon resonance (SPR), Single Cycle Kinetics; settings: SPR; KD ratio class
Sequence of GDP-bound NRAS wild-type protein (P01111 whole entry): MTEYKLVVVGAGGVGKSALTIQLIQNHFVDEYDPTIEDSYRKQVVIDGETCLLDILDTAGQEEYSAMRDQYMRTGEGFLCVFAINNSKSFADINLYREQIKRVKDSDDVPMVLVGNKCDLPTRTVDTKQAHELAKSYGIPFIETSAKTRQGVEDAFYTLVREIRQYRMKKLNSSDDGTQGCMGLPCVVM

Sequence of GDP-bound HRAS wild-type protein (P01112 whole entry): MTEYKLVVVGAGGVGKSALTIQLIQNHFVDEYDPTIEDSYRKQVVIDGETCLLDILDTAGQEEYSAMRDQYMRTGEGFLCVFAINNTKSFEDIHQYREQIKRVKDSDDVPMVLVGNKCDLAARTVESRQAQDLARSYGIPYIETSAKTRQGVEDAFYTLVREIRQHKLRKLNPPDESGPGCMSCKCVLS

What does the source list for `CCO[C@@H]1C[C@H]2C(=O)NC3(CCC3)C(=O)N(C)[C@@H](C3CCCC3)C(=O)N(C)[C@H](C)CC(=O)N(C)[C@@H](CC3CCCC3)C(=O)N[C@@H]([C@@H](C)CC)C(=O)N(C)CC(=O)N(C)[C@H]3C/C=C\CCN(C3=O)[C@@H](Cc3ccc(C)cc3)C(=O)N(C)CC(=O)N[C@@H](CCc3cc(F)c(C(F)(F)F)c(F)c3)C(=O)N2C1` [PP1413]?
HRAS/KRAS (ratio of KD value for GDP-bound HRAS wild-type protein to KD value for KRAS) [1]: B (a compound having 3 or more and less than 10 is denoted as B); IC50 [2]: 62.5 nM; NRAS/KRAS (ratio of KD value for GDP-bound NRAS wild-type protein to KD value for KRAS) [3]: B (a compound having 3 or more and less than 10 is denoted as B)

What does the source list for `CCO[C@@H]1C[C@H]2C(=O)NC3(CCC3)C(=O)N(C)[C@@H](C3CCCC3)C(=O)N(C)[C@H](C(=O)N3CCOCC3)CC(=O)N(C)[C@@H](CC(C)C)C(=O)N[C@@H]([C@@H](C)CC)C(=O)N(C)CC(=O)N(C)[C@H]3C/C=C\CCN(C3=O)[C@@H](Cc3ccc(C)cc3)C(=O)N(C)CC(=O)N[C@@H](CCc3cc(F)c(C(F)(F)F)c(F)c3)C(=O)N2C1` [PP1415]?
HRAS/KRAS (ratio of KD value for GDP-bound HRAS wild-type protein to KD value for KRAS) [1]: A (a compound having 10 or more and less than 20 is denoted as A); IC50 [2]: 9.5 nM; NRAS/KRAS (ratio of KD value for GDP-bound NRAS wild-type protein to KD value for KRAS) [3]: A (a compound having 10 or more and less than 20 is denoted as A)

Which results are given for `CCO[C@@H]1C[C@H]2C(=O)NC3(CCC3)C(=O)N(C)[C@@H](C3CCCC3)C(=O)N(C)[C@H](C(=O)N3CCCC3)CC(=O)N(C)[C@@H](CC(C)C)C(=O)N[C@@H]([C@@H](C)CC)C(=O)N(C)CC(=O)N(C)[C@H]3C/C=C\CCN(C3=O)[C@@H](Cc3ccc(C)cc3)C(=O)N(C)CC(=O)N[C@@H](CCc3cc(F)c(C(F)(F)F)c(F)c3)C(=O)N2C1` [PP1416]?
HRAS/KRAS (ratio of KD value for GDP-bound HRAS wild-type protein to KD value for KRAS) [1]: A (a compound having 10 or more and less than 20 is denoted as A); IC50 [2]: 3.8 nM; NRAS/KRAS (ratio of KD value for GDP-bound NRAS wild-type protein to KD value for KRAS) [3]: A (a compound having 10 or more and less than 20 is denoted as A)

How did the “HRAS/KRAS (ratio of KD value for GDP-bound HRAS wild-type protein to KD value for KRAS)” value [1] turn out when `CCO[C@@H]1C[C@H]2C(=O)NC3(CCC3)C(=O)N(C)[C@@H](C3CCCC3)C(=O)N(C)[C@H](C)CC(=O)N(C)[C@@H](CC(C)C)C(=O)N[C@@H]([C@@H](C)CC)C(=O)N(C)CC(=O)N(C)[C@H]3C/C=C\CCN(C3=O)[C@@H](Cc3ccc(C)cc3)C(=O)N(C)CC(=O)N[C@@H](CCc3cc(F)c(C(F)(F)F)c(F)c3)C(=O)N2C1` [PP1417] was run?
The value was “B (a compound having 3 or more and less than 10 is denoted as B)”.

And the IC50 [2]?
The IC50 was 18.4 nM.

What about the “NRAS/KRAS (ratio of KD value for GDP-bound NRAS wild-type protein to KD value for KRAS)” value [3] of the same compound?
The value was “B (a compound having 3 or more and less than 10 is denoted as B)”.

For `CCO[C@@H]1C[C@H]2C(=O)NC3(CCC3)C(=O)N(C)[C@@H](C3CCCC3)C(=O)N(C)[C@H](C(=O)N3CCOCC3)CC(=O)N(C)[C@@H](CC3CCCCC3)C(=O)N[C@@H]([C@@H](C)CC)C(=O)N(C)CC(=O)N(C)[C@H]3C/C=C\CCN(C3=O)[C@@H](Cc3ccc(C(F)(F)F)cc3)C(=O)N(C)CC(=O)N[C@@H](CCc3cc(F)c(C(F)(F)F)c(F)c3)C(=O)N2C1` [PP1418], which “HRAS/KRAS (ratio of KD value for GDP-bound HRAS wild-type protein to KD value for KRAS)” value [1] is on record?
The value was “A (a compound having 10 or more and less than 20 is denoted as A)”.

And the IC50 [2]?
The IC50 was 29.9 nM.

And the “NRAS/KRAS (ratio of KD value for GDP-bound NRAS wild-type protein to KD value for KRAS)” value [3]?
The value was “AA (a compound having 20 or more is denoted as AA)”.

For `CCO[C@@H]1C[C@H]2C(=O)NC3(CCC3)C(=O)N(C)[C@@H](C3CCCC3)C(=O)N(C)[C@H](C(=O)N3CCCC3)CC(=O)N(C)[C@@H](CC3CCCCC3)C(=O)N[C@@H]([C@@H](C)CC)C(=O)N(C)CC(=O)N(C)[C@H]3C/C=C\CCN(C3=O)[C@@H](Cc3ccc(C(F)(F)F)cc3)C(=O)N(C)CC(=O)N[C@@H](CCc3cc(F)c(C(F)(F)F)c(F)c3)C(=O)N2C1` [PP1419], which “HRAS/KRAS (ratio of KD value for GDP-bound HRAS wild-type protein to KD value for KRAS)” value [1] is on record?
The value was “A (a compound having 10 or more and less than 20 is denoted as A)”.

What about the IC50 [2] of the same compound?
The IC50 was 40.4 nM.

What about the “NRAS/KRAS (ratio of KD value for GDP-bound NRAS wild-type protein to KD value for KRAS)” value [3] of the same compound?
The value was “AA (a compound having 20 or more is denoted as AA)”.

Which results are given for `CCO[C@@H]1C[C@H]2C(=O)NC3(CCC3)C(=O)N(C)[C@@H](C3CCCC3)C(=O)N(C)[C@H](C(=O)N3CCOCC3)CC(=O)N(C)[C@@H](CC3CCCCC3)C(=O)N[C@@H]([C@@H](C)CC)C(=O)N(C)CC(=O)N(C)[C@H]3C/C=C\CCN(C3=O)[C@@H](Cc3ccc(C)cc3)C(=O)N(C)CC(=O)N[C@@H](CCc3cc(F)c(C(F)(F)F)c(F)c3)C(=O)N2C1` [PP1420]?
HRAS/KRAS (ratio of KD value for GDP-bound HRAS wild-type protein to KD value for KRAS) [1]: A (a compound having 10 or more and less than 20 is denoted as A); IC50 [2]: 31.4 nM; NRAS/KRAS (ratio of KD value for GDP-bound NRAS wild-type protein to KD value for KRAS) [3]: A (a compound having 10 or more and less than 20 is denoted as A)

With `CCO[C@@H]1C[C@H]2C(=O)NC3(CCC3)C(=O)N(C)[C@@H](C3CCCC3)C(=O)N(C)[C@H](C(=O)N3CCOCC3)CC(=O)N(C)[C@@H](CC3CCC3)C(=O)N[C@@H]([C@@H](C)CC)C(=O)N(C)CC(=O)N(C)[C@H]3C/C=C\CCN(C3=O)[C@@H](Cc3ccc(C(F)(F)F)cc3)C(=O)N(C)CC(=O)N[C@@H](CCc3cc(F)c(C(F)(F)F)c(F)c3)C(=O)N2C1` [PP1422] as the compound, how does the “HRAS/KRAS (ratio of KD value for GDP-bound HRAS wild-type protein to KD value for KRAS)” value [1] read?
The value was “A (a compound having 10 or more and less than 20 is denoted as A)”.

And the IC50 [2]?
The IC50 was 14.1 nM.

What about the “NRAS/KRAS (ratio of KD value for GDP-bound NRAS wild-type protein to KD value for KRAS)” value [3] of the same compound?
Its value is “AA (a compound having 20 or more is denoted as AA)”.

Which “HRAS/KRAS (ratio of KD value for GDP-bound HRAS wild-type protein to KD value for KRAS)” value [1] does the source give for `CCO[C@@H]1C[C@H]2C(=O)NC3(CCC3)C(=O)N(C)[C@@H](C3CCCC3)C(=O)N(C)[C@H](C(=O)N3CCOCC3)CC(=O)N(C)[C@@H](CC3CCC3)C(=O)N[C@@H]([C@@H](C)CC)C(=O)N(C)CC(=O)N(C)[C@H]3C/C=C\CCN(C3=O)[C@@H](Cc3ccc(C)cc3)C(=O)N(C)CC(=O)N[C@@H](CCc3cc(F)c(C(F)(F)F)c(F)c3)C(=O)N2C1` [PP1424] here?
Its value is “A (a compound having 10 or more and less than 20 is denoted as A)”.

And the IC50 [2]?
Its IC50 is 26.3 nM.

What about the “NRAS/KRAS (ratio of KD value for GDP-bound NRAS wild-type protein to KD value for KRAS)” value [3] of the same compound?
Its value is “A (a compound having 10 or more and less than 20 is denoted as A)”.

For `CCO[C@@H]1C[C@H]2C(=O)NC3(CCC3)C(=O)N(C)[C@@H](C3CCCC3)C(=O)N(C)[C@H](C(=O)N3CCCC3)CC(=O)N(C)[C@@H](CC3CCC3)C(=O)N[C@@H]([C@@H](C)CC)C(=O)N(C)CC(=O)N(C)[C@H]3C/C=C\CCN(C3=O)[C@@H](Cc3ccc(C)cc3)C(=O)N(C)CC(=O)N[C@@H](CCc3cc(F)c(C(F)(F)F)c(F)c3)C(=O)N2C1` [PP1425], which “HRAS/KRAS (ratio of KD value for GDP-bound HRAS wild-type protein to KD value for KRAS)” value [1] is on record?
Its value is “B (a compound having 3 or more and less than 10 is denoted as B)”.

What about the IC50 [2] of the same compound?
The IC50 was 20.2 nM.

And the “NRAS/KRAS (ratio of KD value for GDP-bound NRAS wild-type protein to KD value for KRAS)” value [3]?
Its value is “A (a compound having 10 or more and less than 20 is denoted as A)”.

`CCO[C@@H]1C[C@H]2C(=O)NC3(CCC3)C(=O)N(C)[C@@H](C3CCCC3)C(=O)N(C)[C@H](C(=O)N(C)C)CC(=O)N(C)[C@@H](CC3CC3)C(=O)N[C@@H]([C@@H](C)CC)C(=O)N(C)CC(=O)N(C)[C@H]3C/C=C\CCN(C3=O)[C@@H](Cc3ccc(F)cc3)C(=O)N(C)CC(=O)N[C@@H](CCc3ccc4sccc4c3)C(=O)N2C1` [PP1426] was tested. Which “HRAS/KRAS (ratio of KD value for GDP-bound HRAS wild-type protein to KD value for KRAS)” value [1] did it give?
The value was “B (a compound having 3 or more and less than 10 is denoted as B)”.

What about the IC50 [2] of the same compound?
The IC50 was 475 nM.

What about the “NRAS/KRAS (ratio of KD value for GDP-bound NRAS wild-type protein to KD value for KRAS)” value [3] of the same compound?
Its value is “A (a compound having 10 or more and less than 20 is denoted as A)”.

What does the source list for `CCO[C@@H]1C[C@H]2C(=O)NC3(CCC3)C(=O)N(C)[C@@H](C3CCCC3)C(=O)N(C)[C@H](C(=O)N(C)C)CC(=O)N(C)[C@@H](CC(C)C)C(=O)N[C@@H]([C@@H](C)CC)C(=O)N(C)CC(=O)N(C)[C@H]3C/C=C\CCN(C3=O)[C@@H](Cc3ccc(F)cc3)C(=O)N(C)CC(=O)N[C@@H](CCc3ccc4sccc4c3)C(=O)N2C1` [PP1427]?
HRAS/KRAS (ratio of KD value for GDP-bound HRAS wild-type protein to KD value for KRAS) [1]: B (a compound having 3 or more and less than 10 is denoted as B); IC50 [2]: 465 nM; NRAS/KRAS (ratio of KD value for GDP-bound NRAS wild-type protein to KD value for KRAS) [3]: A (a compound having 10 or more and less than 20 is denoted as A)

Which results are given for `CCO[C@@H]1C[C@H]2C(=O)NC3(CCC3)C(=O)N(C)[C@@H](C(CC)CC)C(=O)N(C)[C@H](C(=O)N(C)C)CC(=O)N(C)[C@@H](CC3CC3)C(=O)N[C@@H]([C@@H](C)CC)C(=O)N(C)CC(=O)N(C)[C@H]3C/C=C\CCN(C3=O)[C@@H](CC3CCCCC3)C(=O)N(C)CC(=O)N[C@@H](CCc3cc(F)c(C(F)(F)F)c(F)c3)C(=O)N2C1` [PP1428]?
HRAS/KRAS (ratio of KD value for GDP-bound HRAS wild-type protein to KD value for KRAS) [1]: A (a compound having 10 or more and less than 20 is denoted as A); IC50 [2]: 38.8 nM; NRAS/KRAS (ratio of KD value for GDP-bound NRAS wild-type protein to KD value for KRAS) [3]: AA (a compound having 20 or more is denoted as AA)

Which results are given for `CCO[C@@H]1C[C@H]2C(=O)NC3(CCC3)C(=O)N(C)[C@@H](C(CC)CC)C(=O)N(C)[C@H](C(=O)N(C)C)CC(=O)N(C)[C@@H](CC3CC3)C(=O)N[C@@H]([C@@H](C)CC)C(=O)N(C)CC(=O)N(C)[C@H]3C/C=C\CCN(C3=O)[C@@H](CC3CCC(F)(F)CC3)C(=O)N(C)CC(=O)N[C@@H](CCc3cc(F)c(C(F)(F)F)c(F)c3)C(=O)N2C1` [PP1429]?
HRAS/KRAS (ratio of KD value for GDP-bound HRAS wild-type protein to KD value for KRAS) [1]: A (a compound having 10 or more and less than 20 is denoted as A); IC50 [2]: 38.7 nM; NRAS/KRAS (ratio of KD value for GDP-bound NRAS wild-type protein to KD value for KRAS) [3]: AA (a compound having 20 or more is denoted as AA)

Source: patent publication US20250230193A1, “CYCLIC COMPOUND HAVING SELECTIVE KRAS INHIBITORY EFFECT ON HRAS AND NRAS” (CHUGAI SEIYAKU KABUSHIKI KAISHA, priority 2022, published 2025)
